≈ marks a conversion by molar mass, not a printed value.
What was measured:
[1] = Lung tissue study in cattle; format: in vivo; conditions: after slaughter
Procedure: The same animals and compositions of Compound A that were used in Example 5 were also used for the Lung tissue study. The lung was freed from the trachea and appending tissues. One half of the lung was homogenized using a food processor (Robot Coupe). Two aliquots of approximately 1 g were placed into 15 mL Falcon tubes. From the liver, kidney and a skeletal muscle (long back muscle) scissor snips from at least two locations were collected to a total mass of ca. 1 g each and placed into 15 mL Falcon tubes. Tissue samples were diluted with blank EDTA cattle plasma 1+3 (w/v) and samples were homogenized using a FastPrep™ System. After centrifugation aliquots of the supernatants were used to determine compound concentrations by a HPLC-MS/MS procedure.

H. somni = experiment: MIC determination, agar dilution (chocolate agar GC II), field isolates; format: cell-based, Histophilus somni
Procedure: (§1) This study determined the in vitro activity Compound (A), the enantiomer of the compound of Formula (I), against different isolates of Actinobacillus (A.) pleuropneumoniae, Bordetella (B.) bronchiseptica, Mannheimia (M.) haemolytica, Pasteurella (P.) multocida, Histophilus (H.) somni and Glaesserella parasuis collected in different European countries.
(§2) The in vitro activity was determined by measuring the minimum inhibitory concentrations (MIC) according to CLSI document VET01-A4 [1] and by calculating MIC50 and MIC90.
(§3) A total of 193 field isolates were tested: 31 of A. pleuropneumoniae, 20 of B. bronchiseptica, 20 of H. somni, 20 H. parasuis, 55 of M. haemolytica and 47 of P. multocida. All bacteria were isolated from the respiratory tract of cattle and swine suffering from respiratory disease. All isolates were epidemiologically unrelated as specified by the different suppliers. E. coli ATCC 25922 (ID 6105) and M. haemolytica ATCC 33396 (ID 6374) were used as reference strains for testing isolates of B. bronchiseptica, M. haemolytica and P. multocida. A. pleuropneumoniae ATCC 27090 (ID 6314) and H. somni ATCC 700025 (ID 6315) were used as reference strains for the testing isolates of A. pleuropneumoniae, H. somni and Glaesserella parasuis. Additionally, H. parasuis (G. parasuis) ATCC 19417 was included as type strain for growth control.
(§4) • Mueller-Hinton agar (Becton Dickinson, Lot 9224866) • Cation-adjusted Mueller-Hinton broth, (CAVHB, Becton Dickinson, Lot 8190586) • Sheep blood, defibrinated (Thermo Scientific, Lot 37091500) • Chocolate agar, GC II with IsoVitalex™ (Becton Dickinson, Lot 0147695) • GC-agar base (Becton Dickinson, Lot 6082608) • Hemoglobin solution (Becton Dickinson, Lot 7142854) • Vitox (Oxoid, Lot 2344976) • Veterinary fastidious Medium (VFM), prepared according to CLSI document VET01-A4 [1], containing: • CAMHB (Becton Dickinson, Lot 8190586) • Yeast extract (Sigma, Lot BCBS5470V) • Lysed horse blood (Thermo Scientific, Lot 35875000) • Supplement C™ (Becton Dickinson, Lot 8030960) • Deionized water
(§5) The MICs for all isolates except for H. somni and Glaesserella parasuis isolates, were determined by using the broth-microdilution method according to CLSI document VET01-A4 [1]. For isolates of H. somni and Glaesserella parasuis the agar-dilution method with chocolate agar GC II, was used. The test concentration range for all compounds was 16 μg/mL to 0.016 μg/mL.
(§6) For isolates tested by the agar-dilution method, results were interpreted according to the CLSI document VET01-S3 [2]. […] The MIC50 and MIC90 represent the concentrations at which a minimum of 50% or 90% of the isolates tested are inhibited.

M. haemolytica = experiment: MIC determination, broth-microdilution (CLSI VET01-A4), field isolates; format: cell-based, Mannheimia haemolytica
Procedure: as §1, §2, §3, §4, §5
(§7) The MIC results were interpreted according to the CLSI document VET01-S3 [2]. […] All wells containing test item were compared with the growth-control wells. The lowest concentration of compound at which no visible growth (i.e. no turbidity) was detected by the unaided eye was recorded as the MIC. If a “trailing endpoint” occurs, the MIC is defined as the first concentration at which a markedly reduction (about 90%) of the inoculum is observed.
as §6

[2] = system: microbes that cause respiratory disease in animals; experiment: Activity against the microbes that cause respiratory disease in animals (statement); format: cell-based
[3] = system: P. multocida (porcine origin); experiment: MIC determination, broth-microdilution (CLSI VET01-A4), field isolates; format: cell-based, Pasteurella multocida
Procedure: as §1, §2, §3, §4, §5, §7, §6

[4] = system: P. multocida (bovine origin); experiment: as above; format: cell-based, Pasteurella multocida
Procedure: as §1, §2, §3, §4, §5, §7, §6

Glaesserella parasuis = experiment: MIC determination, agar-dilution (chocolate agar GC II), field isolates; format: cell-based
Procedure: as §1, §2, §3, §4, §5, §6

[5] = Mannheimia haemolytica, 55 isolates, broth microdilution
[6] = Pasteurella multocida, 22 isolates of porcine origin, broth microdilution
[7] = of 22 isolates tested, porcine origin
[8] = Pasteurella multocida, 25 isolates of bovine origin, broth microdilution
[9] = of 25 isolates tested, bovine origin
[10] = Glaesserella parasuis, 20 isolates, agar dilution

With `COCCNCc1ccc(C#Cc2ccc(C(=O)N[C@H](C(=O)NO)C(C)(C)N)cc2)cc1` [Compound A] the “Detection in tissue samples from lungs” value [1] was “substantial amounts”, the MIC50 (H. somni; Histophilus somni, 20 isolates) was 1 µg/mL (≈ 2.28 µM) and the MIC90 (H. somni; Histophilus somni, 20 isolates) was 2 µg/mL (≈ 4.56 µM). For the same compound, the “Distribution of MICs: number of isolates with MIC 0.25 μg/mL” value (H. somni; of 20 isolates tested) was 1, the “Distribution of MICs: number of isolates with MIC 0.5 μg/mL” value (from here on “Distribution of MICs … with MIC 0.5 μg/mL”) (H. somni; of 20 isolates tested) was 1 and the “Distribution of MICs: number of isolates with MIC 1 μg/mL” value (from here on “Distribution of MICs … with MIC 1 μg/mL”) (H. somni; of 20 isolates tested) was 14. The “Distribution of MICs: number of isolates with MIC 2 μg/mL” value (H. somni; of 20 isolates tested) was 4, the MIC50 (M. haemolytica; [5]) was 0.5 µg/mL (≈ 1.14 µM) and the MIC90 (M. haemolytica; [5]) was 0.5 µg/mL (≈ 1.14 µM). The “Distribution of MICs: number of isolates with MIC 0.063 μg/mL” value (“Distribution … with MIC 0.063 μg/mL” below) (M. haemolytica; of 55 isolates tested) was 2, the “Distribution of MICs: number of isolates with MIC 0.125 μg/mL” value (shortened to “Distribution … with MIC 0.125 μg/mL”) (M. haemolytica; of 55 isolates tested) was 6 and the “Distribution of MICs: number of isolates with MIC 0.25 μg/mL” value (M. haemolytica; of 55 isolates tested) was 15. The “Distribution of MICs … with MIC 0.5 μg/mL” value (M. haemolytica; of 55 isolates tested) was 27, the “Distribution of MICs … with MIC 1 μg/mL” value (M. haemolytica; of 55 isolates tested) was 5 and the “Activity against the microbes that cause respiratory disease in animals” value [2] was “activity against the microbes that cause respiratory disease in animals”. The MIC50 [3, 6] was 0.032 µg/mL (≈ 0.073 µM), the MIC90 [3, 6] was 0.063 µg/mL (≈ 0.144 µM) and the “Distribution of MICs: number of isolates with MIC 0.032 μg/mL” value [3, 7] was 12. The “Distribution … with MIC 0.063 μg/mL” value [3, 7] was 6, the “Distribution … with MIC 0.125 μg/mL” value [3, 7] was 1 and the “Distribution of MICs: number of isolates with MIC ≤0.016 μg/mL” value [3, 7] was 3. The MIC50 [4, 8] was 0.032 µg/mL (≈ 0.073 µM), the MIC90 [4, 8] was 0.063 µg/mL (≈ 0.144 µM) and the “Distribution of MICs: number of isolates with MIC 0.032 μg/mL” value [4, 9] was 12. The “Distribution … with MIC 0.063 μg/mL” value [4, 9] was 6, the “Distribution … with MIC 0.125 μg/mL” value [4, 9] was 1 and the “Distribution of MICs: number of isolates with MIC ≤0.016 μg/mL” value [4, 9] was 6. For the same compound, the MIC50 (Glaesserella parasuis; [10]) was 1 µg/mL (≈ 2.28 µM), the MIC90 (Glaesserella parasuis; [10]) was 2 µg/mL (≈ 4.56 µM) and the “Distribution of MICs … with MIC 0.5 μg/mL” value (Glaesserella parasuis; of 20 isolates tested) was 2. The “Distribution of MICs … with MIC 1 μg/mL” value (Glaesserella parasuis; of 20 isolates tested) was 12, the “Distribution of MICs: number of isolates with MIC 2 μg/mL” value (Glaesserella parasuis; of 20 isolates tested) was 5 and the “Distribution of MICs: number of isolates with MIC 4 μg/mL” value (Glaesserella parasuis; of 20 isolates tested) was 1.

Reference: US20250057790A1, “AN INJECTABLE PHARMACEUTICAL COMPOSITION FOR THE TREATMENT OF RESPIRATORY DISEASES IN ANIMALS” (priority 2021, published 2025)
